Results from patent US10501421B1, “Substituted benzimidazoles as modulators of Ras signaling” (VANDERBILT UNIVERSITY, priority 2017, dated 2019).
Counter-ions that a name gives are not always drawn. Like-named read-outs stand apart in the source and are kept apart here.

Experiments:
[1] = target: Ras GEF SOS (Son of Sevenless) (Homo sapiens, UniProt Q07889); assay: SOS-mediated nucleotide exchange on Ras (BODIPY-GDP fluorescence); format: biochemical; conditions: SOS-mediated exchange of BODIPY-GDP for GTP on Ras
Method in brief: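 Exchange rates were taken from single-exponential fits of the fluorescence time course as BODIPY-GDP on Ras was replaced by GTP. Compound went in first, then GTP and SOS. Mean rates plotted against concentration gave EC50 by four-parameter dose-response fitting.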

[2] = system: H727 lung cancer cell lines (G12V K-Ras mutation); assay: Inhibition of cancer cell proliferation (CellTiter-Glo); format: cell-based; conditions: Homo sapiens, NCI-H727, 72 h, read-out: Cell proliferation activity (H727 cancer cell line proliferation IC50)
Protocol: Compounds of the present invention were measured for their ability to kill H727 lung cancer cell lines, which contain a G12V K-Ras mutation. Cell proliferation experiments were conducted in 96-well plates. Cells were plated at 1000 cells/well, incubated overnight, followed by treatment with a dose range of compound for 3 days at 37° C. Cell proliferation was assessed using a CellTiter-Glo assay (Promega) according to the manufacturer's protocol. Data were normalized to DMSO control. IC50 values were determined using a four-parameter dose-response (variable slope) equation. These assays are performed in a manner analogous to the assay disclosed in: Burns, M. C.; Sun, Q.; Daniels, R. N.; Camper, D. V.; Kennedy, J. P.; Phan, J.; Olejniczak, E. O.; Lee, T.; Waterson, A. G.; Rossanese, O. W.; Fesik, S. W. “Approach for targeting Ras with small molecules that activate SOS-mediated nucleotide exchange” Proc. Natl. Acad. Sci. 2014; 11(9): 3401-3406. PMCID: PMC3948241.

[3] = target: T1, Son of Sevenless (SOS) (Homo sapiens, UniProt Q07889); assay: Binding to SOS, fluorescence polarization anisotropy (FPA) probe displacement; conditions: displacement of FITC-conjugated probe (Example 285), affinity calculated from IC50
T1 sequence (Q07889 564-1049 limits assumed): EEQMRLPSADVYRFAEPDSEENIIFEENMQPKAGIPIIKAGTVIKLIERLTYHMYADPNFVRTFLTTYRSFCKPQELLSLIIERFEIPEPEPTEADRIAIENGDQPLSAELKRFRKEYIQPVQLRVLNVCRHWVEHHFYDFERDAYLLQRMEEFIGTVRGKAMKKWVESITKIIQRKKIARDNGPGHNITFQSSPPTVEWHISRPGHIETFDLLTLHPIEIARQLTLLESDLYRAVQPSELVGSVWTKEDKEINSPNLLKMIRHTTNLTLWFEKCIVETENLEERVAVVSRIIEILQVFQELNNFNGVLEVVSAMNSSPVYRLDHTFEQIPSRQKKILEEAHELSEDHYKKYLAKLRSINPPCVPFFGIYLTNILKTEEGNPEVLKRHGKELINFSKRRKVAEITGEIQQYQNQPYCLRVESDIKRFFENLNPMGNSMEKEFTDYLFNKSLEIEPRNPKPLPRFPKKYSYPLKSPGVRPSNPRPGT
Method in brief: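 Test compounds were titrated against SOS pre-bound to a fluorescein-labelled probe, with anisotropy plotted versus compound concentration. Binding affinities were derived from IC50 values obtained by four-parameter dose-response fitting.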

[4] = H727 cells, 3 days treatment, CellTiter-Glo

Sequence of Ras GEF SOS (Son of Sevenless) (P01112 1-166 partner limits assumed, one chain of several): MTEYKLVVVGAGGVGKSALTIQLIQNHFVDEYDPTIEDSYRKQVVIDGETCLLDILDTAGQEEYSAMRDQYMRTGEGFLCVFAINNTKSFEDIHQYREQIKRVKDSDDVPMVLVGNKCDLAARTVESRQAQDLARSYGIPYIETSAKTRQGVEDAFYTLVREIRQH

SMILES | EC50 [1] | IC50 [2] | Ki [3] | IC50 [2, 4]
NCC1CN(c2nc3ccc(Cl)cc3n2Cc2ccc(F)c(Cl)c2)C1 [Example 76, (1-(6-chloro-1-(3-chloro-4-fluorobenzyl)-1H-benzo[d]imidazol-2-yl)azetidin-3-yl)methanamine trifluoroacetate] | < 1 µM | 1 to 5 µM | < 0.5 µM | –
Cc1cc(-c2cccc3c2nc(N2CCNCC2)n3Cc2ccc(F)c(Cl)c2)n(C)n1 [Example 93, 1-(3-chloro-4-fluorobenzyl)-4-(1,3-dimethyl-1H-pyrazol-5-yl)-2-(piperazin-1-yl)-1H-benzo[d]imidazole] | 1 to 5 µM | – | 1 to 5 µM | 1 to 5 µM
Cc1cc(-c2ccccc2Cl)c2nc(N3CCNCC3)n(Cc3cc(C)c(F)c(C)c3)c2c1 [Example 267, 4-(2-chlorophenyl)-1-[(4-fluoro-3,5-dimethylphenyl)methyl]-6-methyl-2-piperazin-1-ylbenzimidazole] | < 1 µM | – | < 0.5 µM | 1 to 5 µM
CC[C@H](N)c1cc(C)cc2c1nc(N1CCNCC1)n2Cc1cc(C)c(F)c(C)c1 [Example 161, (S)-1-(1-(4-fluoro-3,5-dimethylbenzyl)-6-methyl-2-(piperazin-1-yl)-1H-benzo[d]imidazol-4-yl)propan-1-amine trifluoroacetate] | < 1 µM | 1 to 5 µM | 0.5 to 1 µM | –
C=Cc1cc(Cn2c(N3CCNCC3)nc3cc(C)c(C)cc32)cc(C=C)c1F [Example 46, 1-(4-fluoro-3,5-divinylbenzyl)-5,6-dimethyl-2-(piperazin-1-yl)-1H-benzo[d]imidazole trifluoroacetate] | 5 to 30 µM | 1 to 5 µM | > 5 µM | –
Cc1cc(Cn2c(N3CC(CN)C3)nc3ccc(OCCN(C)C)nc32)ccc1F [Example 262, 2-((2-(3-(aminomethyl)azetidin-1-yl)-3-(4-fluoro-3-methylbenzyl)-3H-imidazo[4,5-b]pyridin-5-yl)oxy)-N,N-dimethylethan-1-amine] | 30 to 100 µM | – | – | 5 to 20 µM
Cc1cc(Cn2c(NCC3CNC3)nc3ccc(OCCN(C)C)nc32)ccc1F [Example 263, N-(azetidin-3-ylmethyl)-5-(2-(dimethylamino)ethoxy)-3-(4-fluoro-3-methylbenzyl)-3H-imidazo[4,5-b]pyridin-2-amine] | 30 to 100 µM | – | – | 5 to 20 µM
CCNCc1c(C)c(C)cc2c1nc(N1CCNCC1)n2Cc1cc(C)c(F)c(C)c1 [Example 131, N-((1-(4-fluoro-3,5-dimethylbenzyl)-5,6-dimethyl-2-(piperazin-1-yl)-1H-benzo[d]imidazol-4-yl)methyl)ethanamine trifluoroacetate] | 1 to 5 µM | < 1 µM | – | –
Cc1ccccc1-c1cccc2c1nc(N1CCNCC1)n2Cc1ccc(F)c(Cl)c1 [Example 79, 1-(3-chloro-4-fluorobenzyl)-2-(piperazin-1-yl)-4-(o-tolyl)-1H-benzo[d]imidazole trifluoroacetate] | 1 to 5 µM | 5 to 20 µM | – | –
Cc1cc2c(nc(N3CCNCC3)n2Cc2cc(C)c(F)c(C)c2)c(CO)c1C [Example 138, (1-(4-fluoro-3,5-dimethylbenzyl)-5,6-dimethyl-2-(piperazin-1-yl)-1H-benzo[d]imidazol-4-yl)methanol trifluoroacetate] | 1 to 5 µM | 5 to 20 µM | – | –
Cc1cc(Cn2c(N3CCCC(N)C3)nc3ccc(OC(C)C(F)(F)F)nc32)ccc1F (stereo not shown) [Example 261, 1-(3-(4-fluoro-3-methylbenzyl)-5-((1,1,1-trifluoroprpan-2-yl)oxy)-3H-imidazo[4,5-b]pyridin-2-yl)piperidin-3-amine] | 30 to 100 µM | – | – | < 1 µM
CC[C@H](N)c1cc(Cl)cc2c1nc(NCCN)n2Cc1cc(C)c(F)c(C)c1 [Example 158, (S)—N^1-(4-(1-aminopropyl)-6-chloro-1-(4-fluoro-3,5-dimethylbenzyl)-1H-benzo[d]imidazol-2-yl)ethane-1,2-diamine trifluoroacetate] | 1 to 5 µM | 5 to 20 µM | – | –
Cc1nn(C)c(C)c1-c1cccc2c1nc(N1CCNCC1)n2Cc1ccc(F)c(Cl)c1 [Example 85, 1-(3-chloro-4-fluorobenzyl)-2-(piperazin-1-yl)-4-(1,3,5-trimethyl-1H-pyrazol-4-yl)-1H-benzo[d]imidazole trifluoroacetate] | 1 to 5 µM | 5 to 20 µM | – | –
Cc1cc(Cn2c(N3CCNCC3)nc3c(C4NCCc5c4[nH]c4ccccc54)cc(Cl)cc32)cc(C)c1F (stereo not shown) [Example 140, 1-(6-chloro-1-(4-fluoro-3,5-dimethylbenzyl)-2-(piperazin-1-yl)-1H-benzo[d]imidazol-4-yl)-2,3,4,9-tetrahydro-1H-pyrido[3,4-b]indole trifluoroacetate] | 1 to 5 µM | 1 to 5 µM | – | –
Fc1ccc(Cn2c(N3CCNCC3)nc3c(-c4ccccc4Cl)cccc32)cc1Cl [Example 84, 1-(3-chloro-4-fluorobenzyl)-4-(2-chlorophenyl)-2-(piperazin-1-yl)-1H-benzo[d]imidazole trifluoroacetate] | 1 to 5 µM | 1 to 5 µM | – | –
Cc1cc(Cn2c(NCCN)nc3c(Cl)nccc32)ccc1F [Example 223, N^1-(4-chloro-1-(4-fluoro-3-methylbenzyl)-1H-imidazo[4,5-c]pyridin-2-yl)ethane-1,2-diamine] | 5 to 30 µM | – | – | > 20 µM
Cn1nccc1-c1cccc2c1nc(N1CCNCC1)n2Cc1ccc(F)c(Cl)c1 [Example 86, 1-(3-chloro-4-fluorobenzyl)-4-(1-methyl-1H-pyrazol-5-yl)-2-(piperazin-1-yl)-1H-benzo[d]imidazole trifluoroacetate] | 1 to 5 µM | 5 to 20 µM | – | –
Cc1cc(CNCC(C)C)c2nc(N3CCNCC3)n(Cc3cc(C)c(F)c(C)c3)c2c1 [Example 133, N-((1-(4-fluoro-3,5-dimethylbenzyl)-6-methyl-2-(piperazin-1-yl)-1H-benzo[d]imidazol-4-yl)methyl)-2-methylpropan-1-amine trifluoroacetate] | 1 to 5 µM | 1 to 5 µM | – | –
Cc1cc(-c2cccc3c2nc(N2CCNCC2)n3Cc2ccc(C(F)(F)F)cc2)nn1C [Example 96, 4-(1,5-dimethyl-1H-pyrazol-3-yl)-2-(piperazin-1-yl)-1-(4-(trifluoromethyl)benzyl)-1H-benzo[d]imidazole] | 1 to 5 µM | – | – | 1 to 5 µM
CC(C)c1ccccc1-c1cccc2c1nc(N1CCNCC1)n2Cc1cc(F)cc(F)c1 [Example 97, 1-(3,5-difluorobenzyl)-4-(2-isopropylphenyl)-2-(piperazin-1-yl)-1H-benzo[d]imidazole] | 1 to 5 µM | – | – | < 1 µM
C=C[C@H](N)c1cc(Cl)cc2c1nc(N1CCNCC1)n2Cc1cc(C)c(F)c(C)c1 [Example 155, (S)-1-(6-chloro-1-(4-fluoro-3,5-dimethylbenzyl)-2-(piperazin-1-yl)-1H-benzo[d]imidazol-4-yl)prop-2-en-1-amine trifluoroacetate] | < 1 µM | < 1 µM | – | –
CC[C@H](N)c1cc(Cl)cc2c1nc(N1CCNCC1)n2Cc1cc(C)c(F)c(C)c1 [Example 157, (S)-1-(6-chloro-1-(4-fluoro-3,5-dimethylbenzyl)-2-(piperazin-1-yl)-1H-benzo[d]imidazol-4-yl)propan-1-amine trifluoroacetate] | < 1 µM | 1 to 5 µM | – | –
Cc1cc(Cn2c(N3CCNCC3)nc3ccc(OC(C)C(F)(F)F)nc32)ccc1F (stereo not shown) [Example 258, 3-(4-fluoro-3-methylbenzyl)-2-(piperazin-1-yl)-5-((1,1,1-trifluoropropan-2-yl)oxy)-3H-imidazo[4,5-b]pyridine] | 5 to 30 µM | – | – | 1 to 5 µM
Nc1ccc(-c2cccc3c2nc(N2CCNCC2)n3Cc2ccc(C(F)(F)F)cc2)cc1 [Example 92, 4-(2-(piperazin-1-yl)-1-(4-(trifluoromethyl)benzyl)-1H-benzo[d]imidazol-4-yl)aniline] | 1 to 5 µM | – | – | 1 to 5 µM
COc1ccc(-c2cccc3c2nc(N2CCNCC2)n3Cc2ccc(C(F)(F)F)cc2)cc1OC [Example 91, 4-(3,4-dimethoxyphenyl)-2-(piperazin-1-yl)-1-(4-(trifluoromethyl)benzyl)-1H-benzo[d]imidazole] | 5 to 30 µM | – | – | 1 to 5 µM
